Measurements from PubChem BioAssay AID222 (DTP/NCI, 2004).
Values joined by “and” are separate entries in the source; they are usually repeats but may differ in a detail not shown here. Identical values can stand only once. Toxic doses and inconclusive results are not listed. The calls were made as follows: active = survival T/C of 150% or more; inactive = T/C below 125% in these data.

Test system: C57BL/6 mice, intracerebral ependymoblastoma, median survival T/C
Assay: NCI In Vivo Anticancer Drug Screen. Data for tumor model Ependymoblastoma (intracerebral) in C57BL/6 mice
Details: endpoint: median survival time, schedule: Q01DX005 (ip), higher = longer survival
Experimental: The antitumor activity of compounds was measured in mice bearing transplantable tumors. Survival or tumor size were measured and the results are expressed as the measurement made in the treated group (T) divided by the measurement made in the vehicle treated control group (C). The tumor model used in this assay is Ependymoblastoma (intracerebral) in C57BL/6 mice

[1] = dose: 8.0 mg/kg/injection, vehicle: Klucel (hydroxypropylcellulose) (HPC)

Measured: T/C

C[n+]1ccc(Nc2ccc(NC(=O)c3ccc(Nc4cc[n+](C)c5ccc(N)cc45)cc3)cc2)cc1
inactive: dose: 1.0 mg/kg/injection, vehicle: Klucel (hydroxypropylcellulose) (HPC) 95 % of control | dose: 2.0 mg/kg/injection, vehicle: Klucel (hydroxypropylcellulose) (HPC) 113 % of control | dose: 4.0 mg/kg/injection, vehicle: Klucel (hydroxypropylcellulose) (HPC) 108 % of control | [1] 113 % of control

CCOC(=O)C(C)(C)Oc1ccc(Cl)cc1
inactive: dose: 100.0 mg/kg/injection, vehicle: saline with Tween-80 96 % of control | dose: 200.0 mg/kg/injection, vehicle: saline with Tween-80 93 % of control

Nc1ccc(C(=O)O)c(O)c1
inactive: dose: 67.5 mg/kg/injection, vehicle: saline with Tween-80 103 % of control | dose: 135.0 mg/kg/injection, vehicle: saline with Tween-80 94 % of control | dose: 270.0 mg/kg/injection, vehicle: saline with Tween-80 86 % of control

CCC1=C[C@H]2CN(CCc3c([nH]c4ccccc34)[C@@](C(=O)OC)(c3cc4c(cc3OC)N(C)[C@H]3[C@@](O)(C(=O)OC)[C@H](OC(C)=O)[C@]5(CC)C=CCN6CC[C@]43[C@@H]65)C2)C1
inactive: dose: 0.05 mg/kg/injection, vehicle: saline 100 % of control | dose: 0.1 mg/kg/injection, vehicle: saline 108 % of control | dose: 0.2 mg/kg/injection, vehicle: saline 110 % of control | dose: 0.4 mg/kg/injection, vehicle: saline 103 % of control | dose: 0.8 mg/kg/injection, vehicle: saline 102 % of control | dose: 1.6 mg/kg/injection, vehicle: saline 105 % of control

CC(=O)CC(c1ccccc1)c1c(O)c2ccccc2oc1=O (stereo not drawn)
inactive: dose: 0.09 mg/kg/injection, vehicle: saline 93 % of control | dose: 0.18 mg/kg/injection, vehicle: saline 115 % of control | dose: 0.36 mg/kg/injection, vehicle: saline 98 % of control | dose: 1.44 mg/kg/injection, vehicle: saline 87 % of control

O=C1c2c(O)ccc(O)c2C(=O)c2c(NCCNCCO)ccc(NCCNCCO)c21
inactive: dose: 1.0 mg/kg/injection, vehicle: saline with Tween-80 102 % of control | dose: 2.0 mg/kg/injection, vehicle: saline with Tween-80 96 % of control | dose: 4.0 mg/kg/injection, vehicle: saline with Tween-80 106 % of control

O=c1[nH]c(=O)n([C@H]2CCCO2)cc1F
inactive: [1] 97 % of control and 98 % of control | dose: 8.0 mg/kg/injection, vehicle: saline with Tween-80 90 % of control and 97 % of control | dose: 8.0 mg/kg/injection, vehicle: saline 101 % of control and 111 % of control | dose: 16.0 mg/kg/injection, vehicle: Klucel (hydroxypropylcellulose) (HPC) 100 % of control and 106 % of control and 112 % of control | dose: 16.0 mg/kg/injection, vehicle: saline with Tween-80 103 % of control and 105 % of control | dose: 16.0 mg/kg/injection, vehicle: saline 100 % of control and 110 % of control | dose: 32.0 mg/kg/injection, vehicle: Klucel (hydroxypropylcellulose) (HPC) 98 % of control and 109 % of control and 114 % of control | dose: 32.0 mg/kg/injection, vehicle: saline with Tween-80 102 % of control and 106 % of control | dose: 32.0 mg/kg/injection, vehicle: saline 102 % of control and 109 % of control (2×) | dose: 64.0 mg/kg/injection, vehicle: Klucel (hydroxypropylcellulose) (HPC) 100 % of control and 103 % of control and 108 % of control | dose: 64.0 mg/kg/injection, vehicle: saline with Tween-80 104 % of control and 120 % of control | dose: 64.0 mg/kg/injection, vehicle: saline 98 % of control and 111 % of control (2×) | dose: 128.0 mg/kg/injection, vehicle: Klucel (hydroxypropylcellulose) (HPC) 112 % of control and 117 % of control | dose: 128.0 mg/kg/injection, vehicle: saline with Tween-80 111 % of control and 114 % of control | dose: 128.0 mg/kg/injection, vehicle: saline 102 % of control and 113 % of control and 119 % of control | dose: 256.0 mg/kg/injection, vehicle: saline 106 % of control and 121 % of control
